Results on one molecule are retold here after patent US20250368648A1, “MULTI-CYCLIC IRAK AND FLT3 INHIBITING COMPOUNDS AND USES THEREOF” (CHILDREN'S HOSPITAL MEDICAL CENTER, priority 2022, published 2025).

In general, Kd refers to the equilibrium constant for the complex coming apart.

What all share (settings): no ATP
For one test, the target named is T1, FLT3 ITD (Homo sapiens, UniProt P36888).
T1 construct: fused on or other part: DNA tag for qPCR read-out (T7 phage fusion, or DNA-tagged kinase made in HEK-293 cells)
T1 sequence (P36888 1-993): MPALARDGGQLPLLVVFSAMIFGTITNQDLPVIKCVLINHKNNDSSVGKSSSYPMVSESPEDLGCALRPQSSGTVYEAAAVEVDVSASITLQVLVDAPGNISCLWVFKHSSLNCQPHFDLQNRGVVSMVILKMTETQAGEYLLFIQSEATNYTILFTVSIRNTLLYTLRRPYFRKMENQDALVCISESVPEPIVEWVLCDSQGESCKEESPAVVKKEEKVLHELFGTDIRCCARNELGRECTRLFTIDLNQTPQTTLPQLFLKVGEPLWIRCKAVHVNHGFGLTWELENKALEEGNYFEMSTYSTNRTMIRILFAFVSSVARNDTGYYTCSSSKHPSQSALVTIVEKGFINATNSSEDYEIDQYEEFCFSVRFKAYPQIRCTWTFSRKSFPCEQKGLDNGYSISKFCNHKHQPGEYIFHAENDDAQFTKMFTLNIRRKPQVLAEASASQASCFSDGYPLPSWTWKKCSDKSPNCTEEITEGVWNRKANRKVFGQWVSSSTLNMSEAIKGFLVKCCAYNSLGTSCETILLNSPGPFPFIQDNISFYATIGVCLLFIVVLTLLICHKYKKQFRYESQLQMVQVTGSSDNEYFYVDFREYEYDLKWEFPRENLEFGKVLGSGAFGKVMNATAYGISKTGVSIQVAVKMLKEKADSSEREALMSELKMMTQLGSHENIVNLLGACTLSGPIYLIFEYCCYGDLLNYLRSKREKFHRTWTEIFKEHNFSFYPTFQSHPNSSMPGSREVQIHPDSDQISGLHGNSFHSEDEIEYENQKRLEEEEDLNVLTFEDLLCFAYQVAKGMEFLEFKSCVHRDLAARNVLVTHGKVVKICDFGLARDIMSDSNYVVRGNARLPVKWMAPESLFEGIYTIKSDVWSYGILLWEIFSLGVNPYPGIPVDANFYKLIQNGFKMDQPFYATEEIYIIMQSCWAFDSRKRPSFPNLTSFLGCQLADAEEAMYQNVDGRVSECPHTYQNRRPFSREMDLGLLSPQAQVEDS
Briefly: DiscoverX KINOMEscan competition binding, FLT3 ITD. The text has this:
(§1) Kinase binding data were obtained for various exemplary compounds prepared according to Examples 2-15 using the DiscoverX KINOMEscan® active site-directed competition binding site-directed assay protocol described below. […] As a result, the data report thermodynamic interaction affinities (Kd values), rather than IC50 values that are dependent on ATP concentrations. The assay uses a DNA-tagged version of the protein kinase, and an immobilized ligand bound to a solid support. Compounds that directly or indirectly prevent kinase binding to the immobilized ligand reduce the amount of kinase captured on the solid support, which is detected using an ultra-sensitive qPCR method. Affinity constants reported from the assay have been reported to be independent of the immobilized ligand used that is coupled to the solid support (See supplemental information in Fabian, M. A. et. al., (2005) Nat. […] Wodicka, L. […] Biol. 17, 1241-1249.) Kinase-tagged T7 phage strains were prepared in an E. coli host derived from the BL21 strain. E. coli were grown to log-phase and infected with T7 phage and incubated with shaking at 32° C. until lysis. […] Kds were determined using an 11-point 3-fold compound dilution series with three DMSO control points. […] The kinase concentration in the eluates was measured by qPCR. Binding constants (Kds) were calculated with a standard dose-response curve using the Hill equation. […]

The target in another test is T2, FLT3 D835V (Homo sapiens, UniProt P36888, D835V).
T2 construct: purchased DiscoverX (KINOMEscan); host or cells: E. coli (T7 phage) or HEK-293
T2 sequence (P36888 27-993 D835V): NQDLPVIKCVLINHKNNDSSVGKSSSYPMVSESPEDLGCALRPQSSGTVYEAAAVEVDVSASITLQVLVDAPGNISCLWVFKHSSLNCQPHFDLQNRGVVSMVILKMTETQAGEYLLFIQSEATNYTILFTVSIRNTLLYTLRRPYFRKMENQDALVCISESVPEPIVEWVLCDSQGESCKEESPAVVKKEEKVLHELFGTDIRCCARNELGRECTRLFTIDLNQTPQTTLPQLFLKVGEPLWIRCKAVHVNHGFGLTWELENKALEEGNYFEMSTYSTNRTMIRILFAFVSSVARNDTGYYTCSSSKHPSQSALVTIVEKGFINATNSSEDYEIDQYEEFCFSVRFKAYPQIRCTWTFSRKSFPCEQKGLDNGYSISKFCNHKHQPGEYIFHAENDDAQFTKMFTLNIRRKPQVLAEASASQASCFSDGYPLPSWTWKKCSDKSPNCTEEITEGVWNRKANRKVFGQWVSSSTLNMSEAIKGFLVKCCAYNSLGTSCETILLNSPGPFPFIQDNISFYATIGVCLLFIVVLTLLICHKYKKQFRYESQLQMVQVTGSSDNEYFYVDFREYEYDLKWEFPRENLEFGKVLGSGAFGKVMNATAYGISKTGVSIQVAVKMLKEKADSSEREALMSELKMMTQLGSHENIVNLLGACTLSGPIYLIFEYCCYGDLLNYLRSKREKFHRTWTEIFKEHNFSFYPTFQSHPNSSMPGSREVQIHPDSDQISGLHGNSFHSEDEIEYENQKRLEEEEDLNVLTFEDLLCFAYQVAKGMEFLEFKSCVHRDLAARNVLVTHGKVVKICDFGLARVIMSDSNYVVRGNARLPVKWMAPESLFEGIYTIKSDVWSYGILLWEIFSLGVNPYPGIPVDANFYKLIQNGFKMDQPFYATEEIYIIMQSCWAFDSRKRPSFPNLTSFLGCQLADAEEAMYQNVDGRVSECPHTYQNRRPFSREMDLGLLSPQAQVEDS
Kind of test: DiscoverX KINOMEscan competition binding, FLT3 D835V.
Source text: as §1

For a further test, the target named is T3, IRAK1 (Homo sapiens, UniProt P51617).
T3 construct: purchased RBC (Reaction Biology) HotSpot assay
T3 sequence (P51617 whole entry): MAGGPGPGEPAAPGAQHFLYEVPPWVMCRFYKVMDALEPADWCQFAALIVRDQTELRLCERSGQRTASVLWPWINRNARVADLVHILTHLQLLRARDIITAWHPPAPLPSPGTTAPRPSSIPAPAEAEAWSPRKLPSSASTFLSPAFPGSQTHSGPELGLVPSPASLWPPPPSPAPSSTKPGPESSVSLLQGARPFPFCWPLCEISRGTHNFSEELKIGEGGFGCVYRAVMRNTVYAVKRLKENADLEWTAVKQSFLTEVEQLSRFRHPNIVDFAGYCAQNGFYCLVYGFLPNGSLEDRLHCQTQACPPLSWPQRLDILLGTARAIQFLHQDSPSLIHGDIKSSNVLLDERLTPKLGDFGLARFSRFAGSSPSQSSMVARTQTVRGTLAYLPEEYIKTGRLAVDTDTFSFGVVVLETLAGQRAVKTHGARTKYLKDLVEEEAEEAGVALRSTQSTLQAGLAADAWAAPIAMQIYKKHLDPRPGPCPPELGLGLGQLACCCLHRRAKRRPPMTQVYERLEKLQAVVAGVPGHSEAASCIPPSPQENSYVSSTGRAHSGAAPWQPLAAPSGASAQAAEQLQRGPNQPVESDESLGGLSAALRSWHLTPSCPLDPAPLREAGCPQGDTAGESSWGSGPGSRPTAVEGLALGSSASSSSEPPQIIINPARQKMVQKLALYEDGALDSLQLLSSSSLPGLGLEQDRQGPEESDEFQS
Briefly: DiscoverX KINOMEscan competition binding, IRAK1.
Source text: as §1

Some results are limits rather than exact numbers.

With `COc1cc2ncc(-c3nc(N[C@H]4CNCC[C@@H]4F)c(F)cc3F)n2nc1C1CCC1` [Compound 15a, 6-(6-cyclobutyl-7-methoxyimidazo[1,2-b]pyridazin-3-yl)-3,5-difluoro-N-((3S,4S)-4-fluoropiperidin-3-yl)pyridin-2-amine], the figures for the Kd on FLT3 ITD, at FLT3 D835V and at IRAK1 were 0.43 nM, under 0.17 nM and 1.4 nM, respectively.
